Measured values from publication PMC5766608, “Target engagement imaging of PARP inhibitors in small-cell lung cancer” (Nature Communications, 2018).
Read-outs that look alike come from different tables or passages of the source. Blank lines part the entries; values can stand above or below the molecule they belong to.

Experiments:
PARP1 = biological target: T1, PARP1 (Homo sapiens, UniProt P09874); conditions: cited from earlier work
T1 construct: purchased BPS Bioscience, San Diego, CA

PARP1/2 [1] = experiment: In vitro binding kinetics by recovery of PARPi-FL binding (flow cytometry); assay type: cell-based, human
Method: (§1) Cells were then treated with fluorescent imaging agent PARPi-FL and either imaged via confocal microscopy or measured via flow cytometry. […] Then, cells were trypsinized, subjected to flow cytometry and analyzed for the relative PARPi-FL fluorescence signal. […] Error bars represent the SD of three independent experiments with three parallels each
(§2) After the respective treatment/staining, which is described below for the different experiments, cells were washed in PBS, trypsinized, washed with flow buffer (1% BSA (w/v) in PBS), transferred to 5 mL flow cytometry tubes through the 40 µm cell strainer cap and left on ice until measurement in the flow cytometer (Fortessa II). Raw data were processed in FlowJo software in order to calculate PARPi-FL uptake per cell. Dead cells were excluded by eliminating DAPI positive cells from the analysis (Supplementary Fig. 8). Cell clumps and debris were eliminated using the corresponding gates (forward and side scatter) for the unstained cell population. PARPi-FL fluorescence was imaged in the FITC channel against side scatter (area).
We furthermore determined the duration of PARPi binding to their target site. […] Then, cells were subjected to flow cytometry as described above. […] We determined the duration of binding of the PARPi indirectly by calculating the recovery of PARP-FL binding with increasing times between PARPi and PARPi-FL treatment. Decay curves were calculated with Prism using two phase decay least squares regression.

JHU-LX22 cells = experiment: Cytotoxicity, Alamar Blue assay; assay type: cell-based, human; conditions: 24-96 h
Method: […]. Cells were plated in 96-well plates (black, clear-bottom, Corning Incorporated) at a density of 5,000 cells/well and allowed them to attach for 24 h. All compounds were prepared as 10 mM stock solutions in DMSO and further diluted in media. Cells were treated with 0, 2, 5, and 10 µM (final solutions containing 1% DMSO) of each compound for 24, 48, 72 and 96 h. Then, media was removed and Alamar Blue reagent was added to each well. Plates were incubated at 37 °C for 4 h under protection from direct light. Fluorescence was read (bottom-read mode) using an excitation wavelength of 570 nm and an emission wavelength of 585 nm on a SpectraMax M5 microplate reader (Molecular Devices, Sunnyvale, CA, USA). The average reading values were analyzed by subtracting the background readings (wells with Alamar Blue but without cells) and compared against the untreated controls of each plate (defined as 100% viability) to determine the percentage of living cells. The experiment was carried out in three biological replicates with four parallels of each compound.
Supplementary Figure 9 | In vitro toxicity of the tested PARP inhibitors and imaging tracers on JHU-LX22 cells. (a) Assessment of viable cell population during flow cytometry after a 2 hour incubation time of several PARP inhibitors at concentrations between 0 and 5 µM. (b) Cell viability determination using Alamar Blue assays. Cells were incubated with 0, 0.2, 2, 5 or 10 µM of each compound for 24, 48, 72 or 96 h and cell viability was assessed using the Alamar Blue assay. (c) IC values derived from Alamar Blue assays at 72 h and 96 h.
Viability data represent means from three independent experiments, each with four parallels of each sample. Error bars represent the standard error (SEM). […]

PARP1/2 [2] = experiment: Blocking of PARPi-FL uptake by PARP inhibitors (confocal microscopy, flow cytometry); assay type: cell-based, human; conditions: JHU-LX22 cells; for Blocking of PARPi-FL uptake: pretreatment with PARP inhibitor 25 min, then PARPi-FL 15 min; for Blocking of PARPi-FL uptake / target engagement, in words: pretreatment with inhibitor, then PARPi-FL
Method: as §1
We conducted confocal laser scanning microscopy to visualize the extent of intracellular blocking of PARPi-FL uptake by different PARPi. […] PARPi-FL was removed and cells were washed in fresh medium for 10 min. Next, cells were treated with 4% Paraformaldehyde (PFA) for 8 min on ice to ensure fixation. […] PARPi-FL intensity was determined by measuring the PARPi-FL fluorescence intensity in all nuclei, which were thresholded using Hoechst staining.
as §2
Controls (cells incubated with medium instead of a PARP inhibitor) served as reference value and their PARPi-FL signal was defined as 100%.
To quantify the extent of blocking of PARPi-FL uptake by different PARPi, we quantified the intracellular PARPi-FL uptake in JHU-LX22 cells after incubation with PARP inhibitors.

PARylation in LX22 cells = experiment: PARylation inhibition assay (western blot for PAR); assay type: cell-based, human; conditions: 0.1 µM, 30 min incubation
Method: Whole cell lysates were prepared by incubating cells with RIPA Buffer with Triton X (BP-140, Boston BioProducts) containing Protease Inhibitor (Complete EASYpacks, Sigma-Aldrich) for 30 min on ice, followed by 30 min centrifugation at 10,000 × g for 30 min at 4 °C. Protein concentration of lysates was determined using a Bicinchoninic acid (BCA) assay kit (#23225, Pierce) and following the manufacturers instructions. SDS gel electrophoresis and immunoblotting were carried out following standard procedures. Signal detection was carried out using chemiluminescent substrate (#34077, Thermo Scientific). Densitometric analysis of western blots was carried out using ImageJ (NIH). To detect PAR, we used a rabbit polyclonal anti-PAR polymer antibody (1:1000 dilution, #4336-BPC-100, Trevigen) followed by a goat anti-rabbit IgG-HRP secondary antibody (1:10,000 dilution, sc-2004, SantaCruz). B-actin was used as loading control (1:1000 dilution, A3854, Sigma-Aldrich) and was stained after stripping the blot for 30 min at room temperature using stripping buffer (Amresco).
Supplementary Figure 3 | PARylation inhibition assay.
PARPi-FL and [18F]PARPi quantify PARP inhibition, we compared their ability to inhibit PARylation
in comparison with olaparib.
inhibition. At 1 µM, the PAR signal for all three compounds is nearly completely eliminated.

PARP1/2 [3] = conditions: for Blocking of [18F]PARPi tumor uptake (target engagement): 30 min before tracer, PET 2 h later
Excerpt: Fig. 7 Variable dose blocking.
The control group received no therapeutic inhibitor.

PARP1/2 [4] = conditions: olaparib 50 mg/kg, talazoparib 0.3 mg/kg i.v., 60 min between drug and tracer
Method: (§3) All PET/CT images (n = 90) were acquired on an Inveon PET/CT (Siemens) and reconstructed scans were analyzed using the Inveon Research Workplace Software (Siemens). To acquire PET/CT images, animals were anesthetized with 2% isoflurane and positioned on the scanner bed. […] PET data were collected for 5–10 min, followed by CT.
Activity concentration was quantified by averaging the mean values taken from VOIs drawn over the entire tumor as it appeared in the CT and portrayed as a mean %ID/g ± SD.

PARP1/2 [5] = experiment: Ex vivo autoradiography of target engagement; conditions: olaparib 50 mg/kg, talazoparib 0.3 mg/kg, 30 min prior to tracer; tumor collected 2 h post tracer
Excerpt: Sections from 3 different tumor areas from each tumor (n = 3/group) were exposed to an autoradiography plate overnight and read the next day. ImageJ was used to quantify the signal intensity of each tissue. Adjacent sections were used for PARP1 IHC and H&E staining to confirm tissue identity and PARP1 expression.

JHU-LX48 SCLC PDX [6] = experiment: PET/CT imaging agent kinetics; assay type: in vivo, NSG mice; conditions: i.v., JHU-LX48 PDX mice
Excerpt: Error bars represent the SD
Different mice were used for each group to eliminate, as much as possible, the influence of anesthesia on tracer distribution.

JHU-LX48 SCLC PDX [7] = experiment: PET/CT tumor size study
Method: PET/CT imaging was performed once a week over 8 consecutive weeks starting one week after xenografting. a Representative MIPs from the same mouse over 8 weeks. b Quantification (n = 6) of mean uptake (top) and max uptake (bottom) of the PET images grouped by tumor size.
as §3
This was continued for 8 consecutive weeks until mice were sacrificed to avoid surpassing a tumor size limit of 1500 mm^3. Activity concentration was quantified by averaging the mean or max values taken from VOIs drawn over the entire tumor as it appeared in the CT and portrayed as mean and max %ID/g ± SD.

PARP2 = biological target: T2, PARP2 (Homo sapiens, UniProt Q9UGN5); experiment: PARP2 IC50 assay (BPS Bioscience, Strep-HRP, histone substrate); assay type: biochemical; conditions: footnote a: see Supplementary Fig. 2
T2 construct: purchased BPS Bioscience, San Diego, CA
T2 sequence (Q9UGN5 whole entry): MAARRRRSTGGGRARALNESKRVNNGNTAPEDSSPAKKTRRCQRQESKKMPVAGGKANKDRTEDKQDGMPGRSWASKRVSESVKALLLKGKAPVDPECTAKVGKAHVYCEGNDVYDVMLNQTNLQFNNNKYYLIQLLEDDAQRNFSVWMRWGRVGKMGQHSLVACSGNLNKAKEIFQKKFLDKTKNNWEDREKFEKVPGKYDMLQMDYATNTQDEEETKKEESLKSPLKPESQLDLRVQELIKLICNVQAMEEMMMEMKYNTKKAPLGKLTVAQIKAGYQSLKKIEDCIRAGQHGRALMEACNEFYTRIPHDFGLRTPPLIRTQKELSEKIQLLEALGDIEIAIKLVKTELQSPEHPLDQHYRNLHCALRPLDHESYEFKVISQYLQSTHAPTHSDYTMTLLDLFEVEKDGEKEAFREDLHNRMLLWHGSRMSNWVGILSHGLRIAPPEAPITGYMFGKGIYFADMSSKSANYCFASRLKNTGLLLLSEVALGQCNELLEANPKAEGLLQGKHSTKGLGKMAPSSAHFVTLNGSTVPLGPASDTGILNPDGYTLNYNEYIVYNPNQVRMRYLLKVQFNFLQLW
Method: Assays were performed by BPS Bioscience, San Diego, CA. […] Data was reported by BPS a`s % enzyme activity curve from 0.03 nM or 0.1 nM to 1000 nM.

[8] = JHU-LX22 cells, 0.2 µM inhibitor 25 min, washed, 0-48 h post-incubation, two phase decay fit

T1 sequence (P09874 whole entry): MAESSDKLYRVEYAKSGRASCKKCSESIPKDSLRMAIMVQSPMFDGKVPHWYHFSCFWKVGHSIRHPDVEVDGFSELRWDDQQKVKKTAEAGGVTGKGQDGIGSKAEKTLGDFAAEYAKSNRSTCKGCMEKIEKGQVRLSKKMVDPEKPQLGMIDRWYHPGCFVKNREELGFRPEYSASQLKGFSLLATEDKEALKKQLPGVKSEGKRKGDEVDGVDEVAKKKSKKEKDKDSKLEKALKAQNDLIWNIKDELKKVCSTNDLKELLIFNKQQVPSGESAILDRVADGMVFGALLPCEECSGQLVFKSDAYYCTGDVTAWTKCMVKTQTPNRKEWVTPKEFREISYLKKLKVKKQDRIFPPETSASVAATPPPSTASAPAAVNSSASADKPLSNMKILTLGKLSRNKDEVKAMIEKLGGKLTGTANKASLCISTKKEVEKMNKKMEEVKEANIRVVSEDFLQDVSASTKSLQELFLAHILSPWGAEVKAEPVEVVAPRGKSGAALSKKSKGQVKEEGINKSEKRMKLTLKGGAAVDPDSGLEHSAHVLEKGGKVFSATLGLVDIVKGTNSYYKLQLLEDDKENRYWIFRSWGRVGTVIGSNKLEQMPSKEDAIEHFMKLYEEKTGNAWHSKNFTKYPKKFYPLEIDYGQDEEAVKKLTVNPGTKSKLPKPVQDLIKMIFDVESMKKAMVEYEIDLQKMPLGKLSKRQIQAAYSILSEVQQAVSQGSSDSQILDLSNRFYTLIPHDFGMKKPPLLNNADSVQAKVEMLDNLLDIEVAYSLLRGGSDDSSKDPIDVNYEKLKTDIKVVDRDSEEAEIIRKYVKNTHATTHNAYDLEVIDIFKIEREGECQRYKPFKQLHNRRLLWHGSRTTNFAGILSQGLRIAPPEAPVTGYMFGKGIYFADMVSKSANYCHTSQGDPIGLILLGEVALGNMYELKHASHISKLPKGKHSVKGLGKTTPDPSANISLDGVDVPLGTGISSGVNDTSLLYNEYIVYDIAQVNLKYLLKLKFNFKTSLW

Structure (SMILES): CN(C)Cc1ccc(-c2nc3cccc4c3n2CCNC4=O)cc1 [AG14361]
Ki (PARP1): < 5 nM

Structure (SMILES): O=C(c1cc(Cc2n[nH]c(=O)c3ccccc23)ccc1F)N1CCN(C(=O)C2CC2)CC1 [Olaparib, olaparib]
Inhibition of PARylation (PAR signal) (PARylation in LX22 cells): nearly complete inhibition
Blocking of [18F]PARPi tumor uptake (target engagement) (PARP1/2 [3]; 5 mg/kg i.v.): 59%
Blocking of [18F]PARPi tumor uptake (target engagement) (PARP1/2 [3]; 15 mg/kg i.v.): 75%
Blocking of [18F]PARPi tumor uptake (target engagement) (PARP1/2 [3]; 50 mg/kg i.v.): 78%
50% blocking dose (PARP1/2 [3]; single-phase decay curve fit, JHU-LX48 PDX tumor): 3.17 mg/kg
Initial blocking (t = 1 h) (PARP1/2 [4]): 74%
Initial blocking (t = 1 h) (PARP1/2 [4]; listed as olaparib): 74%
[18F]PARPi tumor uptake blocked (autoradiography) (PARP1/2 [5]): 96%
Blocking of PARPi-FL uptake / target engagement, in words (PARP1/2 [2]): most complete target engagement

Structure (SMILES): C[C@]1(c2nc3c(C(N)=O)cccc3[nH]2)CCCN1 [Veliparib, veliparib]
Retention on PARP1/2 binding sites, in words (PARP1/2 [1]): faster release kinetics
Effect on JHU-LX22 cell viability, in words (JHU-LX22 cells): much less cell killing
Blocking of PARPi-FL uptake (PARP1/2 [2]): more than 50%

Structure (SMILES): NC(=O)c1ccc(I)c([N+](=O)[O-])c1 [iniparib]
Blocking of PARPi-FL uptake / target engagement, in words (PARP1/2 [2]): failed to reduce PARPi-FL uptake

The next lines start with results.

Retention on PARP1/2 binding sites, in words (PARP1/2 [1]; [8]): faster release kinetics
Structure (SMILES): NC(=O)c1cccc2cn(-c3ccc([C@@H]4CCCNC4)cc3)nc12 [Niraparib, niraparib]
Effect on JHU-LX22 cell viability, in words (JHU-LX22 cells): much less cell killing
Blocking of PARPi-FL uptake (PARP1/2 [2]): more than 50%

Retention on PARP1/2 binding sites, in words (PARP1/2 [1]; [8]): longest retention
Structure (SMILES): CNCc1ccc(-c2[nH]c3cc(F)cc4c3c2CCNC4=O)cc1 [Rucaparib, rucaparib]
Blocking of PARPi-FL uptake / target engagement, in words (PARP1/2 [2]): most complete target engagement

Muscle uptake (PET) (JHU-LX48 SCLC PDX [6]; 30 min post injection): 0.90 ± 0.06 %ID/g
Tumor uptake (PET) (JHU-LX48 SCLC PDX [6]; 30 min post injection): 1.34 ± 0.28 %ID/g
Muscle uptake (PET) (JHU-LX48 SCLC PDX [6]; 60 min post injection): 0.44 ± 0.03 %ID/g
Tumor uptake (PET) (JHU-LX48 SCLC PDX [6]; 60 min post injection): 0.94 ± 0.04 %ID/g
Muscle uptake (PET) (JHU-LX48 SCLC PDX [6]; 120 min post injection): 0.12 ± 0.02 %ID/g
Tumor uptake (PET) (JHU-LX48 SCLC PDX [6]; 120 min post injection): 0.87 ± 0.21 %ID/g
Maximum tumor uptake (JHU-LX48 SCLC PDX [7]; tumor sizes 50-100 mm^3): 2.62 ± 0.27 %ID/g
Maximum tumor uptake (JHU-LX48 SCLC PDX [7]; tumor sizes 50-1300 mm^3): 2.85 ± 0.49 %ID/g
Mean tumor uptake, highest single value (JHU-LX48 SCLC PDX [7]; tumor sizes 50-1300 mm^3): 1.24 %ID/g
Mean tumor uptake, lowest single value (JHU-LX48 SCLC PDX [7]; tumor sizes 50-1300 mm^3): 0.47 %ID/g
Mean tumor uptake (JHU-LX48 SCLC PDX [7]; tumor sizes 50-1300 mm^3, 2 h post injection): 0.86 ± 0.22 %ID/g
Maximum tumor uptake (JHU-LX48 SCLC PDX [7]; tumor sizes 800-1300 mm^3): 3.06 ± 0.61 %ID/g
Mean tumor uptake (JHU-LX48 SCLC PDX [7]; tumor sizes between 100 and 200 mm^3): 0.97 ± 0.18 %ID/g
Mean tumor uptake (JHU-LX48 SCLC PDX [7]; tumor sizes between 400 and 800 mm^3): 0.71 ± 0.22 %ID/g
IC50 (PARP2): 0.21 nM
Structure (SMILES): O=C(c1ccc([18F])cc1)N1CCN(C(=O)c2cc(Cc3n[nH]c(=O)c4ccccc34)ccc2F)CC1 [[^18F]PARPi]
